Experimental data reported in BigSolDB 2.1.

COC(=O)C(C)(C)N=NC(C)(C)C(=O)OC
Conditions	solubility (mole fraction)
in THF, 253.85 K	0.13
in THF, 258.55 K	0.156
in THF, 260.95 K	0.175
in THF, 262.85 K	0.194
in THF, 265.15 K	0.224
in THF, 268.85 K	0.263
in THF, 273.65 K	0.326
in THF, 275.95 K	0.364
in THF, 278.45 K	0.404
in THF, 280.65 K	0.443
in THF, 283.15 K	0.497
in THF, 285.65 K	0.561
in THF, 288.05 K	0.614
in THF, 290.55 K	0.674
in THF, 293.15 K	0.75
in acetone, 252.75 K	0.0841
in acetone, 254.45 K	0.0922
in acetone, 257.95 K	0.112
in acetone, 261.25 K	0.136
in acetone, 264.95 K	0.171
in acetone, 267.65 K	0.201
in acetone, 273.55 K	0.276
in acetone, 275.85 K	0.308
in acetone, 278.25 K	0.352
in acetone, 280.55 K	0.395
in acetone, 283.05 K	0.454
in acetone, 285.65 K	0.524
in acetone, 287.95 K	0.591
in acetone, 290.45 K	0.657
in acetone, 293.15 K	0.734
in acetonitrile, 251.75 K	0.0545
in acetonitrile, 255.15 K	0.0705
in acetonitrile, 258.65 K	0.091
in acetonitrile, 262.45 K	0.113
in acetonitrile, 265.15 K	0.137
in acetonitrile, 269.15 K	0.18
in acetonitrile, 273.55 K	0.238
in acetonitrile, 275.75 K	0.278
in acetonitrile, 278.15 K	0.323
in acetonitrile, 280.65 K	0.369
in acetonitrile, 283.25 K	0.432
in acetonitrile, 285.55 K	0.494
in acetonitrile, 287.95 K	0.557
in acetonitrile, 290.85 K	0.638
in acetonitrile, 293.15 K	0.702
in cyclohexane, 281.15 K	0.147
in cyclohexane, 283.55 K	0.233
in cyclohexane, 286.05 K	0.362
in cyclohexane, 288.45 K	0.471
in cyclohexane, 291.05 K	0.601
in cyclohexane, 293.15 K	0.677
in dichloromethane, 252.95 K	0.268
in dichloromethane, 257.05 K	0.281
in dichloromethane, 260.55 K	0.296
in dichloromethane, 264.45 K	0.321
in dichloromethane, 268.05 K	0.352
in dichloromethane, 271.05 K	0.385
in dichloromethane, 274.95 K	0.413
in dichloromethane, 276.65 K	0.451
in dichloromethane, 278.85 K	0.493
in dichloromethane, 281.15 K	0.513
in dichloromethane, 283.55 K	0.552
in dichloromethane, 286.15 K	0.592
in dichloromethane, 288.45 K	0.627
in dichloromethane, 291.05 K	0.67
in dichloromethane, 293.15 K	0.73
in diethyl ether, 254.25 K	0.0921
in diethyl ether, 257.95 K	0.104
in diethyl ether, 260.55 K	0.119
in diethyl ether, 262.45 K	0.136
in diethyl ether, 266.75 K	0.177
in diethyl ether, 268.15 K	0.19
in diethyl ether, 273.55 K	0.268
in diethyl ether, 275.65 K	0.298
in diethyl ether, 278.05 K	0.361
in diethyl ether, 280.55 K	0.4
in diethyl ether, 282.85 K	0.46
in diethyl ether, 285.55 K	0.543
in diethyl ether, 287.95 K	0.599
in diethyl ether, 290.45 K	0.667
in diethyl ether, 293.15 K	0.743
in ethanol, 252.85 K	0.0094
in ethanol, 256.15 K	0.011
in ethanol, 258.65 K	0.0133
in ethanol, 261.85 K	0.0165
in ethanol, 265.85 K	0.0255
in ethanol, 268.55 K	0.0344
in ethanol, 273.25 K	0.0568
in ethanol, 275.85 K	0.0726
in ethanol, 278.15 K	0.094
in ethanol, 280.65 K	0.123
in ethanol, 283.15 K	0.17
in ethanol, 285.65 K	0.238
in ethanol, 288.05 K	0.329
in ethanol, 291.05 K	0.481
in ethanol, 293.25 K	0.625
in ethyl acetate, 252.15 K	0.107
in ethyl acetate, 255.15 K	0.114
in ethyl acetate, 257.85 K	0.134
in ethyl acetate, 260.15 K	0.146
in ethyl acetate, 263.65 K	0.185
in ethyl acetate, 269.25 K	0.246
in ethyl acetate, 273.65 K	0.308
in ethyl acetate, 276.15 K	0.342
in ethyl acetate, 278.45 K	0.389
in ethyl acetate, 280.85 K	0.433
in ethyl acetate, 283.25 K	0.492
